# Patent US4994270A, “A54145 antibiotics and process for their production” (Eli Lilly and Company, priority 1988, dated 1991)
# Tested on: Streptomyces fradiae A54145.1, A54145.2 and A54145.3
# Assay: Resistance to antibiotics, sensitivity discs on seeded ISP No. 2 agar plates
# Conditions: identical for A54145.1, A54145.2, A54145.3; lincomycin 2 μg, penicillin G 10 units, bacitracin 10 units, cephalothin 30 μg, gentamicin 10 μg, neomycin 30 μg, oleandomycin 15 μg, rifampin 5 μg, streptomycin 10 μg, tetracycline 30 μg, tobramycin 10 μg, vancomycin 30 μg
# Method: Resistance to antibiotics was measured by padding antibiotic sensitivity discs onto the surface of seeded ISP No. 2 agar plates.
row,Compound,resistance or sensitivity of the strains to antibiotic discs
1,CO[C@H]1C[C@H](O[C@H]2[C@H](C)[C@@H](O[C@@H]3O[C@H](C)C[C@H](N(C)C)[C@H]3O)[C@@H](C)C[C@@]3(CO3)C(=O)[C@H](C)[C@@H](O)[C@@H](C)[C@@H](C)OC(=O)[C@@H]2C)O[C@@H](C)[C@@H]1O [oleandomycin],sensitive
2,CC1(C)S[C@@H]2[C@H](NC(=O)Cc3ccccc3)C(=O)N2[C@H]1C(=O)O [penicillin G],resistant
3,CO[C@H]1/C=C/O[C@@]2(C)Oc3c(C)c(O)c4c(O)c(c(/C=N/N5CCN(C)CC5)c(O)c4c3C2=O)NC(=O)/C(C)=C\C=C\[C@H](C)[C@H](O)[C@@H](C)[C@@H](O)[C@@H](C)[C@H](OC(C)=O)[C@@H]1C [rifampin],sensitive
4,[H]/N=C(/N)N[C@H]1[C@H](O)[C@@H](O)[C@H](O[C@@H]2O[C@@H](C)[C@](O)(C=O)[C@H]2O[C@@H]2O[C@@H](CO)[C@H](O)[C@@H](O)[C@@H]2NC)[C@@H](N/C(N)=N\[H])[C@@H]1O [streptomycin],sensitive
5,CN(C)[C@@H]1C(O)=C(C(N)=O)C(=O)[C@@]2(O)C(O)=C3C(=O)c4c(O)cccc4[C@@](C)(O)[C@H]3C[C@@H]12 [tetracycline],sensitive
6,NC[C@H]1O[C@H](O[C@H]2[C@H](O)[C@@H](O[C@H]3O[C@H](CO)[C@@H](O)[C@H](N)[C@H]3O)[C@H](N)C[C@@H]2N)[C@H](N)C[C@@H]1O [tobramycin],sensitive
7,CN[C@H](CC(C)C)C(=O)N[C@H]1C(=O)N[C@@H](CC(N)=O)C(=O)N[C@H]2C(=O)N[C@H]3C(=O)N[C@H](C(=O)N[C@H](C(=O)O)c4cc(O)cc(O)c4-c4cc3ccc4O)[C@H](O)c3ccc(c(Cl)c3)Oc3cc2cc(c3O[C@@H]2O[C@H](CO)[C@@H](O)[C@H](O)[C@H]2O[C@H]2C[C@](C)(N)[C@H](O)[C@H](C)O2)Oc2ccc(cc2Cl)[C@H]1O [vancomycin],sensitive
8,gentamicin,sensitive
9,neomycin,sensitive
